Literature values in patent publication US20060057232A1, “Method of altering age perception” (priority 2004, published 2006).

Test system: sensitivity of observers to light
Details: (26)

SMILES: c1ccncc1 [pyridine]
- effect on sensitivity of observers to light: increase sensitivity of observers to light
